Assay [1] deals with Tyrosine-protein kinase Lck (Homo sapiens, UniProt P06239). The settings on record: at 10 µM.
Assay [2] deals with T1, Serine/threonine-protein kinase RIO3 (Homo sapiens) (UniProt O14730).
T1 sequence (whole entry): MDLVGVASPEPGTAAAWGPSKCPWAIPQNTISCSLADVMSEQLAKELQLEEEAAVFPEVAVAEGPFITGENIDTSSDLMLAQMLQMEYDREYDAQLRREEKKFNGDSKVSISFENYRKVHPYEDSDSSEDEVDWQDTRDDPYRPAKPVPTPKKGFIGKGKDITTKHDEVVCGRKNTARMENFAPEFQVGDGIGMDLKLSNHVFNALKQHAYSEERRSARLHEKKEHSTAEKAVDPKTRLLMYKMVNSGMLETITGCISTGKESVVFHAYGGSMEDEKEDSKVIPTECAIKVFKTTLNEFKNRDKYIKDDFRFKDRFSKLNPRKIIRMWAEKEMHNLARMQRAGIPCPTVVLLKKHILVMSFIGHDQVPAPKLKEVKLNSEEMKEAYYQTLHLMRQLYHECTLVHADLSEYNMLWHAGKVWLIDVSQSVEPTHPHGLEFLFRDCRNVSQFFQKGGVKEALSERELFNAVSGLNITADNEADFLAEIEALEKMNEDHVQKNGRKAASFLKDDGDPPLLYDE
The note with it: at 10 µM.

The target of assay [3] is Casein kinase II subunit alpha' (Homo sapiens) (UniProt P19784). Briefly: Selectivity interaction (KinomeScan (DiscoverX)) EUB0001079a CSNK2A2. The note with it: at 1 µM.
Sequence of Casein kinase II subunit alpha' (Homo sapiens) (P19784 whole entry, looked up): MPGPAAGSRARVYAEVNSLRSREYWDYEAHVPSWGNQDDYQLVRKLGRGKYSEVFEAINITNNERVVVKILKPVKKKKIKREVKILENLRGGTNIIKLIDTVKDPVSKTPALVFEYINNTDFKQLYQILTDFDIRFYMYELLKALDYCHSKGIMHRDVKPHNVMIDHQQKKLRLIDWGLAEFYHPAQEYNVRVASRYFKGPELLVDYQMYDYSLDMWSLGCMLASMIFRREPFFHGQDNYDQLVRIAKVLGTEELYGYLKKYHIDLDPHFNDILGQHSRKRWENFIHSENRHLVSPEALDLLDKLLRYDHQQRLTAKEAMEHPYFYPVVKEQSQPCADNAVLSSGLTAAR
In assay [4] the target is T2, Activin receptor type-1 (Homo sapiens) (UniProt Q04771).
T2 sequence (whole entry): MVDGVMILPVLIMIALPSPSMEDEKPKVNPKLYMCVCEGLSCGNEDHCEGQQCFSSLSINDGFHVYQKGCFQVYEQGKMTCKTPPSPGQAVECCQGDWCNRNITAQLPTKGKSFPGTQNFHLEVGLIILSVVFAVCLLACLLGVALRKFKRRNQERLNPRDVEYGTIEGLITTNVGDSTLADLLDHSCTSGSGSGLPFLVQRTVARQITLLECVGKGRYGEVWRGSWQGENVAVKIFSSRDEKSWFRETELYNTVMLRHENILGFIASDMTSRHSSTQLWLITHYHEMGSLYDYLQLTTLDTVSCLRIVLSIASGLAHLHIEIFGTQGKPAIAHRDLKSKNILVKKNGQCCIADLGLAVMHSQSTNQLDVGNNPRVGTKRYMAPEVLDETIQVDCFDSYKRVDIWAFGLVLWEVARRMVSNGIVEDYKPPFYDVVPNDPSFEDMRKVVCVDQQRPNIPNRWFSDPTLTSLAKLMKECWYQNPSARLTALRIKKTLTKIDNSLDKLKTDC
Kind of assay: Selectivity interaction (KinomeScan (DiscoverX)) EUB0001049a ACVR1. The settings on record: at 1 µM.

Assay [5] has as its target Ribosomal protein S6 kinase alpha-1 (Homo sapiens, UniProt Q15418). Kind of assay: Selectivity interaction (KinomeScan (DiscoverX)) EUB0001049a RPS6KA1. The settings on record: at 1 µM.
Assay [6] deals with Mitogen-activated protein kinase 7 (Homo sapiens) (UniProt Q13164). Briefly: Selectivity interaction (Kinase panel (Carna Biosciences)) EUB0001542aTs MAPK7. The settings on record: at 1 µM.
Sequence of Mitogen-activated protein kinase 7 (Homo sapiens) (Q13164 2-816 limits assumed): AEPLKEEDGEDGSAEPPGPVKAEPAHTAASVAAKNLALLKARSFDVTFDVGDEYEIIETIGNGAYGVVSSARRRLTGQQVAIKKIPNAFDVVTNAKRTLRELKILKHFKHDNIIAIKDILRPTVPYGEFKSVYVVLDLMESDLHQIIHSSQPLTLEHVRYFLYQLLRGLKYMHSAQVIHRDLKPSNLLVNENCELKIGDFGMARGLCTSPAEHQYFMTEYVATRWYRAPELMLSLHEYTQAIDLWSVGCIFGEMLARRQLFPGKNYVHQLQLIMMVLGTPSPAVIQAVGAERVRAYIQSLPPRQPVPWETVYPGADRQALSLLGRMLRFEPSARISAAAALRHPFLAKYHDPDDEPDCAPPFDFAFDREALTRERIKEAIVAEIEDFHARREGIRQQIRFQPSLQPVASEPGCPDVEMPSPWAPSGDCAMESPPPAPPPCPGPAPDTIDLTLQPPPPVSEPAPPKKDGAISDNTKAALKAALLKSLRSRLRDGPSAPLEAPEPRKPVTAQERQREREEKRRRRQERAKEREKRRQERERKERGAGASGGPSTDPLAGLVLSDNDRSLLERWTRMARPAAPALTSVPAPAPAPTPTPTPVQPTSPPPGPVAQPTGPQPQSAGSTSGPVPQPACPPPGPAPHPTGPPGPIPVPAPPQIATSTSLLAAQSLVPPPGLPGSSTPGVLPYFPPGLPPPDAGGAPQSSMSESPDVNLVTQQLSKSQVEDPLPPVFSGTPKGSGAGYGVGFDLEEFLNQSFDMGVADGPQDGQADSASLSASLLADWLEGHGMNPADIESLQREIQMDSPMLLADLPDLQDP
For assay [7], the target named is Histone-lysine N-methyltransferase SETDB1 (Homo sapiens) (UniProt Q15047). Kind of assay: Selectivity interaction (Methyltransferase screen (radiometric assays, panel of 8 PRMTs, 21 protein lysine methyltransferases, 3 DNA methyltransferases, and one RNA methyltransferase)) EUB0000271b SETDB1.
In assay [8] the target is Mitogen-activated protein kinase kinase kinase 1 (Homo sapiens, UniProt Q13233). Kind of assay: Selectivity interaction (KinomeScan (DiscoverX)) EUB0000607a MAP3K1. The settings on record: at 10 µM.
Sequence of Mitogen-activated protein kinase kinase kinase 1 (Q13233 whole entry): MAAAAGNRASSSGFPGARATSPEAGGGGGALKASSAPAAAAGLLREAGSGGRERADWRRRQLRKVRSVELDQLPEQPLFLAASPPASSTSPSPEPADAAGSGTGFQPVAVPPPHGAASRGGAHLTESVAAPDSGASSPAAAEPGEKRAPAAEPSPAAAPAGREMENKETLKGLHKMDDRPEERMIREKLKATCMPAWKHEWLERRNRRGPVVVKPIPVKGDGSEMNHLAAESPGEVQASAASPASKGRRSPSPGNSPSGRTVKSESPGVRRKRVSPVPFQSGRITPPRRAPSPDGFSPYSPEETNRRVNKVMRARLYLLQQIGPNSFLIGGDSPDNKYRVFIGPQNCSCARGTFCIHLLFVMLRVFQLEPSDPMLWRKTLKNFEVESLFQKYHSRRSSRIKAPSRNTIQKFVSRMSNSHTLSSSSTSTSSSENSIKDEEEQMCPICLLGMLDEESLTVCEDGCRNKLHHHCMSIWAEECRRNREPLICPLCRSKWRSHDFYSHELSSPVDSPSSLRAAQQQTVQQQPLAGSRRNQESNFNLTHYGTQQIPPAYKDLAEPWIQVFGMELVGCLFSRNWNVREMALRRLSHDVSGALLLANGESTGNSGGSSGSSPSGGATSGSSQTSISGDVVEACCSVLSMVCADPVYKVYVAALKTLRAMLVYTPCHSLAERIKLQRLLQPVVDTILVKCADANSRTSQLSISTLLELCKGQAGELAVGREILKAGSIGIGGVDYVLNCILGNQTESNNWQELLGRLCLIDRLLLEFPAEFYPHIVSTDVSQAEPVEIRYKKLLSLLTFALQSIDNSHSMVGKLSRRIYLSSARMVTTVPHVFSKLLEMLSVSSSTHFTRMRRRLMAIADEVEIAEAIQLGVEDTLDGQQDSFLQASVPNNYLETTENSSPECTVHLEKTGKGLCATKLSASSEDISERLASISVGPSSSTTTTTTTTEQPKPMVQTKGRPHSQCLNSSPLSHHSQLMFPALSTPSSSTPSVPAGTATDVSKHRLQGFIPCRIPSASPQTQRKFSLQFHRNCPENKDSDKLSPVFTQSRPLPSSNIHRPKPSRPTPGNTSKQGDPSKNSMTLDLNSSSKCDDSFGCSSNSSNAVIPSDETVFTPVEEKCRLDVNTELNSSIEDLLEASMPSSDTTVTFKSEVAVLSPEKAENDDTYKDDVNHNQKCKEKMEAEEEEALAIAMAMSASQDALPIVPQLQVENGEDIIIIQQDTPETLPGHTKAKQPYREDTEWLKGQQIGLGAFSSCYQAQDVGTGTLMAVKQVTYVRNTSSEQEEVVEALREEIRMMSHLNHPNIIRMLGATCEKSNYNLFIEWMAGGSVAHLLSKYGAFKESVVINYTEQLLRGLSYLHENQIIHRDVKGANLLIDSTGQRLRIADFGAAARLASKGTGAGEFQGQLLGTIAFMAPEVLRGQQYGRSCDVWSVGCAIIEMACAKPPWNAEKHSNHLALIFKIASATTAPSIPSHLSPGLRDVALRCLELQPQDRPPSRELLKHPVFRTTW
Assay [9] deals with T3, Serine/threonine-protein kinase Nek1 (Homo sapiens) (UniProt Q96PY6).
T3 sequence (whole entry): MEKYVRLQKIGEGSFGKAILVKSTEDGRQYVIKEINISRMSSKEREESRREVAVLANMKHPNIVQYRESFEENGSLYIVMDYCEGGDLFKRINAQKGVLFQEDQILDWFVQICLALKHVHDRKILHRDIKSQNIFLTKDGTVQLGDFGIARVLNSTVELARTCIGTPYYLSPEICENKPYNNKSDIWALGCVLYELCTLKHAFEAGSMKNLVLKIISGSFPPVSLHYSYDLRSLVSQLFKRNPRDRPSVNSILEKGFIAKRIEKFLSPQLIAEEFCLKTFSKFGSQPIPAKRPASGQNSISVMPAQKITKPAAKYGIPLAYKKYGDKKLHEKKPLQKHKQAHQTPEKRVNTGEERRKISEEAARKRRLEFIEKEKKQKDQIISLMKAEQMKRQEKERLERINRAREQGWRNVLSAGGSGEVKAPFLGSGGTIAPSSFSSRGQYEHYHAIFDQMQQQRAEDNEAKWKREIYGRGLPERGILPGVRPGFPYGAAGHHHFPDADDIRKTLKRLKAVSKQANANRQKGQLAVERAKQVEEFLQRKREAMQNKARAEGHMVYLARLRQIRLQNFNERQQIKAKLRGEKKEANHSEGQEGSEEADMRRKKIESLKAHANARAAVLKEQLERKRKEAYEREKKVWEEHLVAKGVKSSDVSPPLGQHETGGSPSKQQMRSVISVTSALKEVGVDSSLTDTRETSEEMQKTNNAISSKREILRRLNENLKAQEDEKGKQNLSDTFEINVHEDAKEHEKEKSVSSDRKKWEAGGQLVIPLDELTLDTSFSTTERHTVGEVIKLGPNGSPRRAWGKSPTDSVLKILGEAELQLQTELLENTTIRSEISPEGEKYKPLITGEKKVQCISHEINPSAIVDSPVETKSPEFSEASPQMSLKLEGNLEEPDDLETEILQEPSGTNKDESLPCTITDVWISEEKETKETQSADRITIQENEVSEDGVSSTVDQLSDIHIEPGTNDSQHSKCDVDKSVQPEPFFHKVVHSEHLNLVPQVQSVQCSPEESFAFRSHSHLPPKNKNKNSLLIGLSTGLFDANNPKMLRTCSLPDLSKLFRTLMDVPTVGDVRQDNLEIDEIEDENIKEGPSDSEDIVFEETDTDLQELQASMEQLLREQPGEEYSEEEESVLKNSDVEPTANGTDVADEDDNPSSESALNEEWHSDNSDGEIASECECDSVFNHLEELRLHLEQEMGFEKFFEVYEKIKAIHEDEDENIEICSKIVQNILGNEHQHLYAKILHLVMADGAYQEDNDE
Briefly: Selectivity interaction (Kinase panel (Invitrogen)) EUB0000639a NEK1. The note with it: at 200 nM.

In assay [10] the target is Serine/threonine-protein kinase tousled-like 2 (Homo sapiens) (UniProt Q86UE8). Kind of assay: Selectivity interaction (ActivX KiNativ screen (kinase selectivity in THP-1 cell lysates)) EUB0000639a TLK2. Type of assay: subcellular. The settings on record: lysate, at 5 µM.
Sequence of Serine/threonine-protein kinase tousled-like 2 (Homo sapiens) (Q86UE8 whole entry, looked up): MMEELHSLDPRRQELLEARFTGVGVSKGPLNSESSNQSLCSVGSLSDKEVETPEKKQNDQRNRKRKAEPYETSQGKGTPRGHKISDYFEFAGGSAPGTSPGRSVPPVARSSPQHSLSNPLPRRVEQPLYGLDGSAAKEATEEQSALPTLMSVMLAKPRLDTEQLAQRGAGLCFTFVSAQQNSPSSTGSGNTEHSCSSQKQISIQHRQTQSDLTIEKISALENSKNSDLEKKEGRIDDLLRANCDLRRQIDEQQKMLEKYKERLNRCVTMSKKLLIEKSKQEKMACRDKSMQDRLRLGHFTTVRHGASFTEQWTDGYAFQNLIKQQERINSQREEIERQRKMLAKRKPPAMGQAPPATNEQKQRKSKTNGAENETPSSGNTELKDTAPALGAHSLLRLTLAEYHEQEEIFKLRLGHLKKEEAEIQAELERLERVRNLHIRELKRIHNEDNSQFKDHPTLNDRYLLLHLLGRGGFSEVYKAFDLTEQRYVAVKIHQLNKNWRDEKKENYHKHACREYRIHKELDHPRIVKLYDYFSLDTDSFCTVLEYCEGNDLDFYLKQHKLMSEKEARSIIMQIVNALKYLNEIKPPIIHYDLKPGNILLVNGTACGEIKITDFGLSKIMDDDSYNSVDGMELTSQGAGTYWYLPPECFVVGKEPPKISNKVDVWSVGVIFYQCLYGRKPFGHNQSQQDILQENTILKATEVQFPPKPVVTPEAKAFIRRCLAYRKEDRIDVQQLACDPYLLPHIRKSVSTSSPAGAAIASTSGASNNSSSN
For assay [11], the target named is Mitogen-activated protein kinase 9 (Homo sapiens, UniProt P45984). Kind of assay: Selectivity interaction (Kinase panel (literature)) EUB0001199aCl MAPK9. The settings on record: at 1 µM.
Sequence of Mitogen-activated protein kinase 9 (P45984 whole entry, looked up): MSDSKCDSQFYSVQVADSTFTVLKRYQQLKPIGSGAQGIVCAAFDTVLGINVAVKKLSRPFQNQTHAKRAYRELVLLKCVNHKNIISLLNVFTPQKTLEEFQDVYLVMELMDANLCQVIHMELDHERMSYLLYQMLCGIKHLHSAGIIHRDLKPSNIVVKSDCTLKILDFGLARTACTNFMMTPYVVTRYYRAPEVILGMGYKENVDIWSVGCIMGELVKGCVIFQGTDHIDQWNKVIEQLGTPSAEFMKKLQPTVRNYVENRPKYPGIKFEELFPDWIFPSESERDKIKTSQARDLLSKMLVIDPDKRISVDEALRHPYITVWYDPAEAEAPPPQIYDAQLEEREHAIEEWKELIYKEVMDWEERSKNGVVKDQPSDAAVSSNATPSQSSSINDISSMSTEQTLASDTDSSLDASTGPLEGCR

Sequence of Tyrosine-protein kinase Lck (P06239 2-509 limits assumed): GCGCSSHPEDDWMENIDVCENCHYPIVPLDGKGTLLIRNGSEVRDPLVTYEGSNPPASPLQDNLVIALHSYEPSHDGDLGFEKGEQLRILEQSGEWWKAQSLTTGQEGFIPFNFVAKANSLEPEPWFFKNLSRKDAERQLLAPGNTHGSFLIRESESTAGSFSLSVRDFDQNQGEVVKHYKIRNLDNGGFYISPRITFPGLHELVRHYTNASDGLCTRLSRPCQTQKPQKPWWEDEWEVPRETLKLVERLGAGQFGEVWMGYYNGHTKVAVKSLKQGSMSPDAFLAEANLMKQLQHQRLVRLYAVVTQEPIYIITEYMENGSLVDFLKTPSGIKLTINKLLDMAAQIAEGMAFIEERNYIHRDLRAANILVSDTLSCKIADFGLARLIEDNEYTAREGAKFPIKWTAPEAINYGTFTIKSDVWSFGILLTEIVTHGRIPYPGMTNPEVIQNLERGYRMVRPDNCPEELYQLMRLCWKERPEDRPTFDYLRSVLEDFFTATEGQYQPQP

Take `Cc1cc([C@@H](C)Nc2ccccc2C(=O)O)c2nc(N3CCOCC3)cc(=O)n2c1` [AZD-6482]: the % of control in assay [1] worked out at 97%; in [2] it was 100%.
For `Nc1cnc(N2CCc3cc(S(=O)(=O)Nc4c(F)cc(Cl)cc4F)cc(N4CCCC4=O)c32)nc1` [TP-020n], the % of control in assay [3] is 98%.
On to `COc1cc(Nc2nc(C)cc(-c3cnn4nc(OC)ccc34)n2)cc(C(F)(F)F)c1`, for which the % of control was determined as 78% in assay [4] and 100% in [5].
With `Cn1cc(Nc2nccc(N3CC4CCC(C3)N4C(=O)[C@@H]3CC3(F)F)n2)cn1`, in assay [6], the % of inhibition was determined as 63%.
Consider `Cc1cc(C)cc([C@@H]2c3cc(C)ccc3NC(=O)CN2C(=O)c2ccc(Br)s2)c1`, for which the % of activity in assay [7] (at 1 µM) stood at 102%; in [7] (at 10 µM) it was 104%.
`CNC(=O)Nc1ccc(-c2nc(N3CC4CCC(C3)O4)c3cnn(C4CCC5(CC4)OCCO5)c3n2)cc1`: in [8], the % of control turned out to be 58%.
Regarding `CC[C@@H]1[C@H](F)C(=O)N[C@@H]1COc1nccc2cc(C(N)=O)c(OC)cc12` [ZIMLOVISERTIB], the % of inhibition in [9] came to 10.2%; in [10], 80.5%.
In assay [11], `CN1Cc2nccc(-c3cn(C)nc3-c3ccc(F)cc3)c2C1=O` displayed a % of inhibition of 18%.

Values taken from ChEMBL document CHEMBL5465560, “Selectivity Literature for EUbOPEN Chemogenomic Library” (2024).
